Measured values published in patent US4405717A, “Recovery of acetic acid from a fermentation broth” (priority 1981, dated 1983).
Read-outs that look alike come from different tables or passages of the source.

Experiments:
[1] = for dissolution of the amine: aqueous calcium acetate solution, carbon dioxide added
Experimental: In carrying out the process of this invention, a molar equivalent of a water-soluble tertiary amine carbonate is added to the calcium acetate solution. The tertiary amine carbonate used in the process can be generated by the addition of carbon dioxide to a solution or suspension of the tertiary amine in water. It is most convenient to generate the tertiary amine carbonate in situ by first adding a molar equivalent of the tertiary amine to the calcium acetate solution. Then carbon dioxide is added to the mixture to generate the tertiary amine carbonate directly in the calcium acetate solution. The addition of the carbon dioxide is carried out by any convenient means. Either solid or gaseous carbon dioxide is added to the solution at atmospheric pressure or at higher pressures in a pressure vessel.
To a solution of 20 g of acetic acid and 400 ml of water was added 16 g of calcium carbonate. […] To this was added 62 g of tributylamine.

[2] = Thermal decomposition (dissociation) of trialkylammonium acetates; assay type: physicochemical
Experimental: In the final step of the process, the trialkylammonium acetate is heated to cause dissociation of the acetate with liberation of acetic acid and the amine. The temperature at which the acetate decomposes depends somewhat on the tertiary amine used. When tributylamine is employed, the acetate decomposes when held in a bath in the range of about 170°-190° C. with distillation of the acetic acid in a relatively pure form. The residue after distillation of the acid is tributylamine which can be recycled for use in the extraction process.
The syrup obtained in Example 1 was placed in a flask fitted with a 7-cm Vigreux column attached to a water-cooled condenser. The flask was heated in an oil bath to 180° C. at which temperature decomposition of the acetate occurred. The yield of acetic acid distilling at 115°-118° C. was 18.3 g which represents a 91.5% recovery of the acetic acid present in the solution.
When the process of Example 2 was repeated with the syrups containing trimethylammonium acetate, triethylammonium acetate and tripropylammonium acetate, the products that were obtained were either azeotropes or mixtures of the tertiary amine and acetic acid.

[3] = Extraction of trialkylammonium acetates: distribution coefficient (KD) between water and solvents; assay type: physicochemical; conditions: conclusion from Table I
Experimental: In one embodiment of this invention, the trialkylammonium acetate is extracted from the solution by means of an organic solvent. Polar solvents, such as esters, alcohols, ketones, ethers or chlorinated hydrocarbons can be used. The solvents should be insoluble or sparingly soluble in water and be good extractants for the acetate. This extraction ability is determined by measuring the amount of acetic acid in each phase when an acetate solution is extracted with an equal volume of extractant. The extraction ability is expressed as a Distribution Coefficient (KD) which is defined by the formula: [formula] The solvent should have a KD greater than about 0.4 and preferably greater than about 1.
The efficiency with which trialkylammonium acetates could be extracted from water solutions with various solvents was measured by determination of the KD of the salts between water and the solvents according to the following procedure:
A mixture of 50 ml of a 5% aqueous solution of the acetate formed by the procedure of Example 1 and 50 ml of solvent in a 250-ml Erlenmeyer flask was shaken in a wrist-action shaker for 2 hours at room temperature. The mixture was transferred to a separatory funnel where it was allowed to stand for an additional hour before the phases were separated, weighed and analyzed. […]

CN(C)c1ccncc1 [4-dimethylaminopyridine]
dissolution of the amine [1]: all of the amine went into solution

CC(=O)O.CCCCN(CCCC)CCCC [Tributylammonium Acetate, tributylammonium acetate]
decomposition temperature of the acetate ([2]; heated in an oil bath, Example 2): 180 °C
extraction from water with the solvents (in words) [3]: much more efficient than any of the other combinations

CN(C1CCCCC1)C1CCCCC1 [dicyclohexylmethylamine]
dissolution of the amine [1]: all of the amine went into solution

CCCCCCCCCCCCN(C)C [dimethyldodecylamine, N,N-dimethyldodecylamine]
behaviour of the salt on distillation ([2]; salts prepared from long-chain amines): distillation was accompanied by unknown side-reactions

CCCCCN(CCCCC)CCCCC [triamylamine]
dissolution of the amine [1]: the amine did not dissolve

CCCCN(CCCC)CCCC [tributylamine]
dissolution of the amine ([1]; listed as Tributylamine): dissolves readily

CCCCCCN(CCCCCC)CCCCCC [trihexylamine]
water solubility of the amine carbonate [1]: do not form carbonates which are sufficiently soluble in water
dissolution of the amine [1]: the amine did not dissolve

CC(C)CCCCCN(CCCCCC(C)C)CCCCCC(C)C [triisooctylamine]
dissolution of the amine [1]: the amine did not dissolve

CN(C)C [trimethylamine]
water solubility of the amine carbonate ([1]; general statement): form carbonates which are water soluble

CCCCCCCCN(CCCCCCCC)CCCCCCCC [trioctylamine]
water solubility of the amine carbonate [1]: do not form carbonates which are sufficiently soluble in water

CCCN(CCC)CCC [tripropylamine]
water solubility of the amine carbonate [1]: form carbonates which are water soluble
dissolution of the amine [1]: all of the amine went into solution
